Measurements: patent publication US20230331707A1, “PROGRAMMED CELL NECROSIS INHIBITOR, PREPARATION METHOD THEREFOR, AND USE THEREOF” (Shanghai Institute of Organic Chemistry, Chinese Academy of …, priority 2020, published 2023)

How the values were obtained:
[1] = test system: MEFs cells expressing RIPK1 S161E mutant; experiment: TSZ-induced programmed necrosis in MEFs cells expressing RIPK1 S161E mutant; assay type: cell-based, mouse; settings: 600 nM
From the text: The adopted biological test protocol was: the effect of compounds on programmed necrosis in MEFs cells (mouse embryonic fibroblasts) with RIPK1 S161E mutation.
In order to verify the inhibitory effect of the compound of the present invention on the highly activated RIPK1 kinase at the cellular level, MEFs cells stably expressing RIPK1 S161E (simulating the activation state of RIPK1 after phosphorylation) were selected, TNFα-SM164-zVAD (Caspase inhibitor for inhibiting apoptosis) (TSZ) was used in combination to induce programmed cell necrosis, and cell viability was calculated by detecting chemiluminescence values, thereby obtaining the biological activity of the compound in inhibiting programmed necrosis.
Methods: MEFs cells replenished by RIPK1: WT-RIPK1, S161A-RIPK1 and S161E-RIPK1 were replenished in RIPK1 stable knockout cells respectively. After stable expression and being cultured to logarithmic growth phase, the cells were collected, and centrifuged at 1000 rpm for 5 min. The supernatant was discarded. Cell concentration was adjusted to 5×10^4/mL, and cells were inoculated into 384-well plates with 40 μL per well. Cell culture medium diluted SM164 (100 nM), zVAD (50 μM) and compound, each […], were added to the corresponding wells. After pretreatment at 37° C. for 1 h, 5 μL of cell culture medium diluted TNF (50 ng/mL) was added to each well in the stimulated group and 5 μL of culture medium was added to the control group. […] The unstimulated DMSO control wells (Ctrl) were taken as 100% cell viability. EC50 values of the compounds were calculated using Prism Graphpad statistical software.

[2] = Liver microsomal stability test, mouse; assay type: in vitro ADME
From the text: The adopted biological test protocol was: testing the half-life of the compound in human- or mouse-derived liver microsomes.
Liver microsomes contain many enzymes involved in drug metabolism, especially cytochrome P-450, and therefore it is one of the major tissues involved in drug metabolism in living organisms. There are some correlations between the stability of the compound in liver microsomes and the pharmacogenetic stability thereof in vivo. Therefore, the relative stability of compounds in vivo can be roughly predicted by testing the half-life of different compounds in human- or mouse-derived liver microsomes. The specific methods were as follows:
Methods: 0.75 μL of 0.5 mM samples (compounds to be tested and control verapamil), 9.38 μL of 20 mg/mL liver microsomes (Human and Mouse) were taken and added to 239.88 μL PBS (on ice), and divided into 30 μL/tube samples respectively. The samples were incubated at 37° C. in a constant temperature water bath for 5 min, and then all samples were taken out. At zero-time, control group was added with 90 μL of ice acetonitrile first, and then added with 15 μL of 3 mM NADPH solution sequentially, and incubated at 37° C. in a constant temperature water bath. The corresponding samples were taken out after 5 min, 10 min, 20 min, 30 min and 60 min, respectively, and quenched by adding 90 μL of ice acetonitrile. All samples were centrifuged at 10000 rpm for 10 min, and the supernatants were taken and placed in a liquid phase vial waiting for LC-MS analysis.

Cn1ncc(C(=O)NCc2ccc(-n3cnc4c(N)ncnc43)cc2)c1Cc1ccccc1 [QY-10-40]
inhibition of programmed necrosis [1]: can significantly inhibit occurrence of programmed necrosis
stability in liver microsomes (in words) ([2]; mouse derived liver microsomes): good stability
T1/2 (min) Mouse ([2]; mouse liver microsomes, NADPH, 37° C.): 69.3 min
